PubChem BioAssay (NCI)
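96-well plates; 48 h exposure; 5 concentrations. Endpoints by linear interpolation between flanking doses. Not reached: highest tested concentration assigned. GI50: concentration for 50% inhibition of growth. Definition used: TGI = concentration required for complete inhibition of growth.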

The compounds below were run on KM12 colon (assay: growth of human tumour cells (NCI), 48 h).

| Structure (SMILES) | GI50 | TGI |
| --- | --- | --- |
| O=C1CSC(c2ccc(Cl)cc2Cl)N1c1ccc(F)cc1 (configuration not stated) | 15.6 µM | 29.8 µM |
| COc1cccc(C#Cc2ccccc2C#CCCCCO)c1 | 12.4 µM | 41.8 µM |
| CC1=C[C@H]2c3c(c(O)c(O)c4oc(-c5ccccc5)cc(=O)c34)[C@H](c3cc(O)c(O)c4oc(-c5ccccc5)cc(=O)c34)[C@H]2C(C)(C)C1 | 1.41 µM | 8.96 µM |
| COc1ccc(/C=C/C(=O)C(CC2CCC2)C(=O)/C=C/c2ccc(OC)c(OC)c2)cc1OC | 2.22 µM | 6.66 µM |
| Nc1nc(F)nc2c1ncn2C1OC(CO)C(O)C1O (configuration not stated) |  | > 100 µM |
| CCn1c(-c2ccc(OC(C)=O)cc2)c(C)c2cc(OC(C)=O)ccc21 |  | 36.8 µM |
| O=c1cccc(C#CC#CC2=CCCCC2)o1 | 5.84 µM | 13.6 µM |
| Br[C](Br)(Br)[Hg][c]1ccccc1 | 15.6 µM | 29.4 µM |
| COc1ccc(CC2NCCc3cc(OC)c(OC)cc32)cc1Br (configuration not stated) |  | > 100 µM |
| CCOc1cc(C(C)(C)C)ccc1C1=N[C@@](C)(c2ccc(Cl)cc2)[C@@](C)(c2ccc(Cl)cc2)N1C(=O)N1CCN(CCCS(C)(=O)=O)CC1 | 11.4 µM | 28 µM |

Each compound was assayed on SW-620 colon (assay: growth of human tumour cells (NCI), 48 h).

| Structure (SMILES) | GI50 | TGI |
| --- | --- | --- |
| O=C1CSC(c2ccc(Cl)cc2Cl)N1c1ccc(F)cc1 (configuration not stated) | 21.7 µM | 37.5 µM |
| COc1cccc(C#Cc2ccccc2C#CCCCCO)c1 | 17.5 µM | 35.9 µM |
| CC1=C[C@H]2c3c(c(O)c(O)c4oc(-c5ccccc5)cc(=O)c34)[C@H](c3cc(O)c(O)c4oc(-c5ccccc5)cc(=O)c34)[C@H]2C(C)(C)C1 | 0.934 µM | 13.9 µM |
| COc1ccc(/C=C/C(=O)C(CC2CCC2)C(=O)/C=C/c2ccc(OC)c(OC)c2)cc1OC | 1.55 µM | 3.57 µM |
| Nc1nc(F)nc2c1ncn2C1OC(CO)C(O)C1O (configuration not stated) | 60.2 µM | > 100 µM |
| CCn1c(-c2ccc(OC(C)=O)cc2)c(C)c2cc(OC(C)=O)ccc21 |  | 82.2 µM |
| O=c1cccc(C#CC#CC2=CCCCC2)o1 | 3.4 µM | 18.2 µM |
| Br[C](Br)(Br)[Hg][c]1ccccc1 | 1.65 µM | 8.01 µM |
| COc1ccc(CC2NCCc3cc(OC)c(OC)cc32)cc1Br (configuration not stated) |  | > 70.5 µM |
| CCOc1cc(C(C)(C)C)ccc1C1=N[C@@](C)(c2ccc(Cl)cc2)[C@@](C)(c2ccc(Cl)cc2)N1C(=O)N1CCN(CCCS(C)(=O)=O)CC1 | 11.2 µM | 29.3 µM |

These compounds were tested on K-562 leukemia (assay: growth of human tumour cells (NCI), 48 h).

| Structure (SMILES) | GI50 | TGI |
| --- | --- | --- |
| O=C1CSC(c2ccc(Cl)cc2Cl)N1c1ccc(F)cc1 (configuration not stated) | 19.8 µM | 45.7 µM |
| COc1cccc(C#Cc2ccccc2C#CCCCCO)c1 | 1.84 µM | 85.4 µM |
| CC1=C[C@H]2c3c(c(O)c(O)c4oc(-c5ccccc5)cc(=O)c34)[C@H](c3cc(O)c(O)c4oc(-c5ccccc5)cc(=O)c34)[C@H]2C(C)(C)C1 | 0.294 µM | > 75 µM |
| COc1ccc(/C=C/C(=O)C(CC2CCC2)C(=O)/C=C/c2ccc(OC)c(OC)c2)cc1OC | 2.15 µM | > 100 µM |
| Nc1nc(F)nc2c1ncn2C1OC(CO)C(O)C1O (configuration not stated) |  | > 100 µM |
| CCn1c(-c2ccc(OC(C)=O)cc2)c(C)c2cc(OC(C)=O)ccc21 |  | 55.3 µM |
| O=c1cccc(C#CC#CC2=CCCCC2)o1 | 3.26 µM | > 41.8 µM |
| Br[C](Br)(Br)[Hg][c]1ccccc1 | 0.275 µM | 5.02 µM |
| COc1ccc(CC2NCCc3cc(OC)c(OC)cc32)cc1Br (configuration not stated) |  | 45.6 µM |
| CCOc1cc(C(C)(C)C)ccc1C1=N[C@@](C)(c2ccc(Cl)cc2)[C@@](C)(c2ccc(Cl)cc2)N1C(=O)N1CCN(CCCS(C)(=O)=O)CC1 | 3.71 µM | > 100 µM |

What follows are compounds tested on SR leukemia (assay: growth of human tumour cells (NCI), 48 h).

| Structure (SMILES) | GI50 | TGI |
| --- | --- | --- |
| O=C1CSC(c2ccc(Cl)cc2Cl)N1c1ccc(F)cc1 (configuration not stated) | 19.6 µM | 40.9 µM |
| COc1cccc(C#Cc2ccccc2C#CCCCCO)c1 | 1.95 µM | 12.1 µM |
| CC1=C[C@H]2c3c(c(O)c(O)c4oc(-c5ccccc5)cc(=O)c34)[C@H](c3cc(O)c(O)c4oc(-c5ccccc5)cc(=O)c34)[C@H]2C(C)(C)C1 | 0.457 µM | > 75 µM |
| COc1ccc(/C=C/C(=O)C(CC2CCC2)C(=O)/C=C/c2ccc(OC)c(OC)c2)cc1OC | 1.04 µM | > 100 µM |
| Nc1nc(F)nc2c1ncn2C1OC(CO)C(O)C1O (configuration not stated) | > 68.9 µM | > 100 µM |
| CCn1c(-c2ccc(OC(C)=O)cc2)c(C)c2cc(OC(C)=O)ccc21 |  | 30.8 µM |
| O=c1cccc(C#CC#CC2=CCCCC2)o1 | 0.0307 µM | 23.4 µM |
| Br[C](Br)(Br)[Hg][c]1ccccc1 | 3.32 µM | 20.4 µM |
| COc1ccc(CC2NCCc3cc(OC)c(OC)cc32)cc1Br (configuration not stated) |  | 74.6 µM |
| CCOc1cc(C(C)(C)C)ccc1C1=N[C@@](C)(c2ccc(Cl)cc2)[C@@](C)(c2ccc(Cl)cc2)N1C(=O)N1CCN(CCCS(C)(=O)=O)CC1 | 0.236 µM | > 100 µM |

What follows are compounds tested on MDA-MB-231 breast (assay: growth of human tumour cells (NCI), 48 h).

| Structure (SMILES) | GI50 | TGI |
| --- | --- | --- |
| O=C1CSC(c2ccc(Cl)cc2Cl)N1c1ccc(F)cc1 (configuration not stated) | 16.1 µM | 30.4 µM |
| COc1cccc(C#Cc2ccccc2C#CCCCCO)c1 | 3.41 µM | 13.2 µM |
| CC1=C[C@H]2c3c(c(O)c(O)c4oc(-c5ccccc5)cc(=O)c34)[C@H](c3cc(O)c(O)c4oc(-c5ccccc5)cc(=O)c34)[C@H]2C(C)(C)C1 | 2.71 µM | 17.7 µM |
| COc1ccc(/C=C/C(=O)C(CC2CCC2)C(=O)/C=C/c2ccc(OC)c(OC)c2)cc1OC | 3.77 µM | > 100 µM |
| Nc1nc(F)nc2c1ncn2C1OC(CO)C(O)C1O (configuration not stated) |  | > 100 µM |
| CCn1c(-c2ccc(OC(C)=O)cc2)c(C)c2cc(OC(C)=O)ccc21 |  | 38.3 µM |
| O=c1cccc(C#CC#CC2=CCCCC2)o1 | 1.96 µM | 5.3 µM |
| Br[C](Br)(Br)[Hg][c]1ccccc1 | 18.1 µM | 41.3 µM |
| COc1ccc(CC2NCCc3cc(OC)c(OC)cc32)cc1Br (configuration not stated) |  | 57.3 µM |
| CCOc1cc(C(C)(C)C)ccc1C1=N[C@@](C)(c2ccc(Cl)cc2)[C@@](C)(c2ccc(Cl)cc2)N1C(=O)N1CCN(CCCS(C)(=O)=O)CC1 | 3.41 µM | 12.9 µM |
